Measured values from PMC9556824, “Design, synthesis and computational study of new benzofuran hybrids as dual PI3K/VEGFR2 inhibitors targeting cancer” (Scientific Reports, 2022).

Key:
[1] = test system: Hepatocellular carcinoma (HePG2); assay: Antitumor screening using MTT assay; assay type: cell-based, human; details: Homo sapiens
Description: (§2) Hepatocellular carcinoma (HePG2), mammary gland breast cancer (MCF-7), epithelioid carcinoma cervix cancer (Hela), and human prostate cancer were included on the panel (PC3). […] The cell lines were obtained from the American Type Culture Collection (ATCC) through VACSERA, a Cairo-based holding firm for biological goods and vaccines.
(§3) The panel consisted of hepatocellular carcinoma (HePG2), mammary gland breast cancer (MCF-7), epithelioid carcinoma cervix cancer (Hela) and human prostate cancer (PC3). Human lung fibroblast (WI38) was used to assay the cytotoxicity effect on normal cell. The cell lines were obtained from ATCC via Holding company for biological products and vaccines (VACSERA), Cairo, Egypt. The cytotoxic activity was defined as the concentration of the compound that causes 50% growth inhibition compared with the growth of untreated cells.

[2] = test system: mammary gland breast cancer (MCF-7); assay: Antitumor screening using MTT assay; details: Homo sapiens
Description: as §2, §3

[3] = In vitro cytotoxicity against human normal cell line (MTT); assay type: cell-based; details: human, WI38, read-out: Average of Relative viability of cells (%)
Description: (§1) The anticancer agent's selectivity for cancer cells is a critical consideration for any researcher, as it can decrease the molecule's adverse effects on normal human cells.

[4] = test system: human lung fibroblast (WI38); assay: as above; assay type: cell-based; details: Homo sapiens, WI-38, human normal cell line WI38; mean ± SD, n = 3
Description: as §1

[5] = test system: epithelioid carcinoma cervix cancer (Hela); assay: Antitumor screening using MTT assay; details: Homo sapiens, HeLa
Description: as §2, §3

[6] = test system: HePG2, MCF-7, Hela, PC3 cell lines; assay: Antitumor screening using MTT assay, statements across several cell lines; assay type: cell-based, human; details: Homo sapiens; Hela and PC3; one range for 9 and 10 together; read-out: IC50 values range against Hela and PC3 cell line
Description: as §2, §3

[7] = test system: human prostate cancer (PC3); assay: Antitumor screening using MTT assay; details: Homo sapiens
[8] = MCF7, read-out: Average of Relative viability of cells (%)
[9] = read-out: Average of Relative viability of cells (%)

With `COc1ccc(/C=N/N=C(\C)c2cc3ccccc3o2)cc1OC` [Compound 9, (E)-1-[1-(benzofuran-2-yl)ethylidene]-2-((E)-3,4-dimethoxybenzylidene)hydrazine] the viability at 1.56 µM ([1]; Conc. 1.56 µM, read-out: Average of Relative viability of cells (%)) was 100%, the viability at 3.125 µM ([1]; Conc. 3.125 µM, read-out: Average of Relative viability of cells (%)) was 94.4% and the viability at 6.25 µM ([1]; Conc. 6.25 µM, read-out: Average of Relative viability of cells (%)) was 78.2%. The viability at 12.5 µM ([1]; Conc. 12.5 µM, read-out: Average of Relative viability of cells (%)) was 60.5%, the viability at 25 µM ([1]; Conc. 25 µM, read-out: Average of Relative viability of cells (%)) was 49.6% and the viability at 50 µM ([1]; Conc. 50 µM, read-out: Average of Relative viability of cells (%)) was 36.8%. It also gave a viability at 100 µM ([1]; Conc. 100 µM, read-out: Average of Relative viability of cells (%)) of 26.2%, an IC50 ([1]; mean ± SD, n = 3, read-out: In-vitro cytotoxicity IC50 (µM) HePG2) of 26.4 ± 2.1 µM and a viability at 1.56 µM [2, 8] of 100%. It also gave a viability at 3.125 µM [2, 8] of 96%, a viability at 6.25 µM [2, 8] of 79.5% and a viability at 12.5 µM [2, 8] of 64.2%. The viability at 25 µM [2, 8] was 50.6%, the viability at 50 µM [2, 8] was 38.2% and the viability at 100 µM [2, 8] was 25.3%. The IC50 ([2]; MCF7, read-out: In-vitro cytotoxicity IC50 (µM) MCF-7) was 28.1 ± 2.3 µM, the viability at 3.125 µM ([3]; WI38 human lung fibroblast cells (normal cell line), Conc. 3.125 µM) was 100% and the viability at 1.56 µM ([3]; WI38 normal lung fibroblast cells, Conc. 1.56 µM) was 100%. It also gave a viability at 6.25 µM ([3]; WI38 normal lung fibroblast cells, Conc. 6.25 µM) of 99.7%, a viability at 12.5 µM ([3]; WI38 normal lung fibroblast cells, Conc. 12.5 µM) of 85.2% and a viability at 25 µM ([3]; WI38 normal lung fibroblast cells, Conc. 25 µM) of 74.5%. It also gave a viability at 50 µM ([3]; WI38 normal lung fibroblast cells, Conc. 50 µM) of 60.6%, a viability at 100 µM ([3]; WI38 normal lung fibroblast cells, Conc. 100 µM) of 47.9% and an IC50 [4] of 82.3 ± 4.3 µM. For the same compound, the viability at 1.56 µM [5, 9] was 100%, the viability at 3.125 µM [5, 9] was 92% and the viability at 6.25 µM [5, 9] was 73.2%. The viability at 12.5 µM [5, 9] was 50.4%, the viability at 25 µM [5, 9] was 37.1% and the viability at 50 µM [5, 9] was 28.2%. The viability at 100 µM [5, 9] was 20.3%, the IC50 ([5]; read-out: In-vitro cytotoxicity IC50 (µM) Hela) was 17 ± 1.4 µM and the melting point was 130 to 132 °C. For the same compound, the IC50 [6] was 13.8 to 32.1 µM, the viability at 1.56 µM [7, 9] was 100% and the viability at 3.125 µM [7, 9] was 96.1%. For the same compound, the viability at 6.25 µM [7, 9] was 75.8%, the viability at 12.5 µM [7, 9] was 60.2% and the viability at 25 µM [7, 9] was 52.6%. The viability at 50 µM [7, 9] was 44.8%, the viability at 100 µM [7, 9] was 31.2% and the IC50 ([7]; read-out: In-vitro cytotoxicity IC50 (µM) PC3) was 32.1 ± 2.2 µM.
